EP4656642A1, “ESTROGEN RECEPTOR PROTEOLYSIS TARGETING CHIMERA COMPOUND AND USE THEREOF” (GAN & LEE PHARM CO., LTD, priority 2023, dated 2024)
pIC50: −log10 of the molar value.

Assays:
Format in all cases: cell-based
[1] = molecular target: T1, ERα (Homo sapiens, UniProt P03372); test: Degradation of ERα in T-47D cells (immunoblotting, 4 h); set-up: host or cells: T-47D
T1 sequence (P03372 1-595): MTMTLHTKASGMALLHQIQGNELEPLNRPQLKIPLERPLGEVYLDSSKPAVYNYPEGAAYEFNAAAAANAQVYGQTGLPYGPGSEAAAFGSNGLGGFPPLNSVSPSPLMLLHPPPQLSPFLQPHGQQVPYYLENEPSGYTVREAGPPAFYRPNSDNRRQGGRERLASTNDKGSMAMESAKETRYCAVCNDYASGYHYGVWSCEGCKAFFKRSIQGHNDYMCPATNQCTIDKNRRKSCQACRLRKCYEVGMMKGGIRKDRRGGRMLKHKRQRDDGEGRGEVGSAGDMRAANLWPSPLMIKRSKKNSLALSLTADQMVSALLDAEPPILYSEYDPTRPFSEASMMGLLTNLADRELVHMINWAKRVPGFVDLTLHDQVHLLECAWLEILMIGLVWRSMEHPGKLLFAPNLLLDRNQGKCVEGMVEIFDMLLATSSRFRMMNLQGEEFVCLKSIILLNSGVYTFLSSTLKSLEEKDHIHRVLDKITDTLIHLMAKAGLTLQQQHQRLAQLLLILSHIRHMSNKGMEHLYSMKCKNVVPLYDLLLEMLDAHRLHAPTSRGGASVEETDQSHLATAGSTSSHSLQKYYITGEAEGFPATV
Procedure, shortened: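 ERα protein levels were assessed by immunoblot of RIPA lysates (with protease inhibitor) after 4 h exposure at 37°C. Compound was added in DMSO to T-47D cells at final concentrations of 0.15-1000 nM.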

[2] = system: T-47D cells; test: Inhibition of cell proliferation in T-47D cells (CCK-8, 6 days); details: 6 days of treatment
Procedure, shortened: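 Viability read-out was CCK-8 after 6 days of compound treatment (37 °C, 5% CO2) across graded concentrations. Cells were T-47D seeded at 3,000 per well in 1640 medium plus 10% FBS. IC50 was calculated against proliferation.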

[3] = system: MCF-7 cells; test: Inhibition of cell proliferation of MCF-7 cells (CCK-8, 9 days)
Procedure, shortened: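 Read-out was CCK-8 viability after 9-day continuous exposure (37°C, 5% CO2) of MCF-7 cells plated at 800/well in 10% FBS DMEM across several compound concentrations. Values are proliferation IC50s.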

[4] = molecular target: T1, ERα; test: Degradation of ERα in MCF-7 cells (immunoblotting, 4 h)
Procedure, shortened: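 Degradation rate reflects ERα band intensity, corrected to an internal reference protein, relative to control. Values come from Western blotting of lysates from MCF-7 cells exposed 4 h at 37°C to compounds at final concentrations of 0.15-1000nM.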

[5] = treated for 9 days, CCK-8 kit (Table 6)

Degradation rate (%) of ERα in T-47D cells ([1]; 1nM compound) [%]	Degradation rate (%) of ERα in T-47D cells ([1]; 10nM compound) [%]	pIC50 ([2]; Table 3)	pIC50 [3, 5]	Degradation rate (%) of ERα in MCF-7 cells ([4]; 1nM compound) [%]	Degradation rate (%) of ERα in MCF-7 cells ([4]; 10nM compound) [%]	pIC50 ([2]; Table 2)	pIC50 ([3]; 9 days of treatment, CCK-8, Table 5)	Compound
55	85	8.74	7.36	46	83	–	–	COC(=O)[C@@H]1C[C@H](N2CCC3(CC2)COc2c3ccc3c2CN(C2CCC(=O)NC2=O)C3=O)CCN1C1CC2(CCN(c3ccc([C@@H]4c5ccc(O)cc5CC[C@@H]4c4ccccc4)cc3)CC2)C1 (stereo partly shown) [H31]
21	55	8.18	4.60	-2	31	–	–	CCN(CC1CCN(c2ccc([C@@H]3c4ccc(O)cc4CC[C@@H]3c3ccccc3)cc2)CC1)[C@H]1CC[C@@H](C(=O)N2CCC3(CC2)COc2c3ccc3c2CN(C2CCC(=O)NC2=O)C3=O)CC1 (stereo partly shown) [N8]
61	68	8.99	7.20	47	54	–	–	O=C1CCC(N2Cc3c(ccc4c3OCC43CCN(C(=O)C4CCC(N5CCN(c6ccc([C@@H]7c8ccc(O)cc8CC[C@@H]7c7ccccc7)cc6)CC5)CC4)CC3)C2=O)C(=O)N1 (stereo partly shown) [H17]
27	72	8.86	7.90	32	76	–	–	O=C1CCC(N2Cc3c(ccc4c3OCC43CCN(C4CCN(C5CC6(CCN(c7ccc([C@@H]8c9ccc(O)cc9CC[C@@H]8c8ccccc8)cc7)CC6)C5)CC4F)CC3)C2=O)C(=O)N1 (stereo partly shown) [H33]
21	75	8.97	7.14	24	70	–	–	O=C1CCC(N2Cc3c(ccc4c3OCC43CCN([C@H]4CCN(C5CC6(CCN(c7ccc([C@@H]8c9ccc(O)cc9CC[C@@H]8c8ccccc8)cc7)CC6)C5)C[C@H]4F)CC3)C2=O)C(=O)N1 (stereo partly shown) [H36]
63	82	8.75	7.47	58	69	–	–	O=C1CCC(N2Cc3c(ccc4c3OCC43CCN(C(=O)C(=O)N4CCC5(CCN(c6ccc([C@@H]7c8ccc(O)cc8CC[C@@H]7c7ccccc7)cc6)CC5)C4)CC3)C2=O)C(=O)N1 (stereo partly shown) [N5]

Continued, compound first:

Compound	Degradation rate (%) of ERα in T-47D cells ([1]; 1nM compound) [%]	Degradation rate (%) of ERα in T-47D cells ([1]; 10nM compound) [%]	pIC50 ([2]; Table 3)	pIC50 [3, 5]	Degradation rate (%) of ERα in MCF-7 cells ([4]; 1nM compound) [%]	Degradation rate (%) of ERα in MCF-7 cells ([4]; 10nM compound) [%]	pIC50 ([2]; Table 2)	pIC50 ([3]; 9 days of treatment, CCK-8, Table 5)
C[C@@H]1Cc2c(ccc3[nH]ncc23)C(c2ccc(N3CCC(C(=O)N4CCC(N5CCC6(CC5)COc5c6ccc6c5CN(C5CCC(=O)NC5=O)C6=O)CC4)CC3)cn2)N1CC(F)(F)F (stereo partly shown) [B42]	3	13	5.61	4.04	17	26	–	–
O=C1CCC(N2C(=O)c3cc4c(cc3C2=O)C2(CCN(C3CCC5(CC3)CCN(c3ccc(C6c7ccc(O)cc7CCC6c6ccccc6)cc3)CC5)CC2)CO4)C(=O)N1 (stereo not shown) [A18]	–	14	–	–	–	20	7.17	6.77
O=C1CCC(N2Cc3c(ccc4c3OCC43CCN(C4CCN(C(=O)C5(F)CCN(c6ccc([C@@H]7c8ccc(O)cc8CC[C@@H]7c7ccccc7)cc6)CC5)CC4)CC3)C2=O)C(=O)N1 (stereo partly shown) [A89]	40	70	8.67	6.96	48	72	–	–
CC1(CN2CCC3(CC2)COc2c3ccc3c2CN(C2CCC(=O)NC2=O)C3=O)CCN(CC2CCN(c3ccc([C@@H]4c5ccc(O)cc5CC[C@@H]4c4ccccc4)cc3)CC2)CC1 (stereo partly shown) [B37]	12	36	8.07	5.55	11	41	–	–
O=C1CCC(N2Cc3cc4c(cc3C2=O)OC2(CC4)CN(CC3CCC4(CC3)CCN(c3ccc([C@@H]5c6ccc(O)cc6CC[C@@H]5c5ccccc5)cc3)CC4)C2)C(=O)N1 (stereo partly shown) [A37]	15	35	8.15	7.43	-12	8	–	–
O=C1CCC(N2Cc3c(ccc4c3OCC43CCN(C4CCN(C5CN(c6ccc([C@@H]7c8ccc(O)cc8CC[C@@H]7c7ccccc7)cc6)C5)CC4)CC3)C2=O)C(=O)N1 (stereo partly shown) [A61]	9	-2	7.57	6.08	-4	-19	–	–
CCC(C(=O)N1CCC2(CC1)COc1c2ccc2c1CN(C1CCC(=O)NC1=O)C2=O)N1CCC2(CCN(c3ccc([C@@H]4c5ccc(O)cc5CC[C@@H]4c4ccccc4)cc3)CC2)C1 (stereo partly shown) [A95]	52	68	8.83	6.70	42	48	–	–
O=C1CCC(N2Cc3c(ccc4c3OCC43CCN(C4CCN(C(=O)C5CCN(c6ccc([C@@H]7c8ccc(O)cc8CC[C@@H]7c7ccccc7)cc6)CC5)[C@@H](C(=O)N5CCC(F)(F)CC5)C4)CC3)C2=O)C(=O)N1 (stereo partly shown) [C1]	50	72	8.94	8.09	18	49	–	–
C[C@@H]1Cc2c(ccc3[nH]ncc23)[C@@H](c2c(F)cc(N3CCC4(CCN(CC(=O)N5CCC6(CC5)COc5c6ccc6c5CN(C5CCC(=O)NC5=O)C6=O)CC4)CC3)cc2F)N1CC(F)F (stereo partly shown) [C10]	65	80	9.30	7.26	53	65	–	–
O=C1CCC(N2Cc3cc4c(cc3C2=O)CCC2(CN(C(=O)CN3CCC5(CC3)CCN(c3ccc([C@@H]6c7ccc(O)cc7CC[C@@H]6c6ccccc6)cc3)CC5)C2)O4)C(=O)N1 (stereo partly shown) [A69]	19	67	8.45	7.04	21	35	–	–
CC(C)(C(=O)N1CCC2(CC1)COc1c2ccc2c1CN(C1CCC(=O)NC1=O)C2=O)N1CCC2(CCN(c3ccc([C@@H]4c5ccc(O)cc5CC[C@@H]4c4ccccc4)cc3)CC2)C1 (stereo partly shown) [A91]	-1	49	8.95	6.49	2	33	–	–
O=C1CCC(N2Cc3cc4c(cc3C2=O)OC2(CC4)CN(C3CCC4(CC3)CN(c3ccc([C@@H]5c6ccc(O)cc6CC[C@@H]5c5ccccc5)cc3)C4)C2)C(=O)N1 (stereo partly shown) [B9]	16	45	8.15	7.07	0	17	–	–
O=C1CCC(N2Cc3c(ccc4c3OCC43CCN(C(=O)c4ccc(CN5CCN(c6ccc([C@@H]7c8ccc(O)cc8CC[C@@H]7c7ccccc7)cc6)CC5)cc4)CC3)C2=O)C(=O)N1 (stereo partly shown) [B39]	47	66	8.74	4.60	41	49	–	–
C[C@@H]1Cc2c(ccc3[nH]ncc23)[C@@H](c2c(F)cc(N3CCC(C(=O)N4CCC(N5CCC6(CC5)COc5c6ccc6c5CN(C5CCC(=O)NC5=O)C6=O)CC4)CC3)cc2F)N1CC(F)F (stereo partly shown) [B38]	57	63	8.91	7.04	63	57	–	–
